Tested on: ovulation in female rats
Assay: Anti-ovulatory activity (AOA) in vivo assay in rats
Parameters: species or system rat
Experimental: As used herein, “LHRH antagonist peptide” is intended to include peptides and peptide analogs which inhibit LHRH activity (i.e., has “LHRH antagonist activity”) in vivo or in vitro. Candidate LHRH antagonist peptides can be assayed, for example, in the animal model described in Corbin and Beattie, Endocrine Res. Commun. 2:1 (1975) (and see infra). In this assay, the LHRH antagonistic activity of a candidate compound is assayed by measuring the antiovulatory activity (AOA) of the compound in rats.
Anti-ovulatory activity (AOA) was measured by an in vivo assay in rats, as described in Corbin and Beattie, Endocrine Res. Commun. 2:1 (1975). In brief, female rats are injected with a candidate LHRH antagonist on the day of proestrus; in general, the candidate LHRH antagonist was dissolved in 0.1% DMSO. The ability of the candidate peptide to inhibit ovulation is measured by determining the number of rats which ovulate. A candidate peptide is considered to have LHRH antagonist qualities if it inhibits ovulation in at least 50% of the treated rats at a dose of 5 μg per rat. Preferred LHRH antagonists inhibit ovulation in at least 50% of rats at a dose of 2 μg per rat, more preferably at a dose of […], and still more preferably at a dose of 0.5 μg per rat.

| Substance | AO activity (AOA): rats which ovulate / rats treated (dose 1 μg per rat) | other results |
| --- | --- | --- |
| Ac-D-Pal^1, 4-Cl-D-Phe^2, D-Pal^3, D-Pal(iPr)^6, Lys(iPr)^8, D-Ala^10-LHRH.2TFA [Compound 3804] | 8/8@1.0 | – |
| Ac-D-Nal^1, 4-Cl-D-Phe^2, D-Pal^3, Cit^5, D-Pal^6, Lys(iPr)^8, D-Ala^10-LHRH.TFA [Compound 3433] | 5/8@1 μg | – |
| Ac-D-Qal^1, 4-Cl-D-Phe^2, D-Pal^3, D-Lys(Gulonyl)^6, Lys(iPr)^8, D-Ala^10-LHRH.TFA [Compound 3785] | 7/8@1.0 | – |
| Ac-D-(or L)-9-anthryl-Ala^1, 4-Cl-D-Phe^2, D-Pal^3, D-Cit^6-Lys(iPr)^8, D-Ala^10-LHRH.TFA [Compound 3366] | – | AO activity (AOA): rats which ovulate / rats treated (dose 5 μg per rat): 6/8@5 μg |
| Ac-D-Nal^1,4-Cl-D-Phe^2,D-Pal^3,D-Lys(COCH2S^+Me2)^6, D-Ala^10-LHRH.2TFA [Compound 4014] | 0/8@1.00 | – |
| Ac-D-Nal^1, 4-Cl-D-Phe^2, D-Pal^3, D-Arg^6, Met^8, D-Ala^10-LHRH.TFA [Compound 3995] | 5/8@1.00 | – |
| Ac-D-Nal^1, 4-Cl-D-Phe^2, D-Pal^3, D-Glu(CSer)^6, Lys(iPr)^8, D-Ala^10-LHRH.2TFA [Compound 3550] | 6/8@1 μg | – |
| Ac-D-Nal^1, 4-Cl-D-Phe^2, D-Pal^3, D-Pal(N—O)^6, Lys(iPr)^8, D-Ala^10-LHRH.TFA [Compound 3786] | 4/8@1.0 | – |
| Ac-D-Nal^1, 4-Cl-D-Phe^2, D-Pal^3, Lys(Nic)^5, D-Pal(Bzl)^6, Lys(iPr)^8, D-Ala^10-LHRH.3TFA [Compound 3547] | 6/8@1 μg | – |
| Ac-D-Nal^1, 4-Cl-D-Phe^2, D-Pal^3, Cit^5, D-Pal(iPr)^6, Lys(iPr)^8, D-Ala^10-LHRH.TFA [Compound 3435] | 7/8@1 μg | – |
| Ac-D-Nal^1, 4-Cl-D-Phe^2, D-Pal^3, D-Arg^6, Orn(COCH2SMe)^8, D-Ala^10-LHRH.2TFA [Compound 3994] | 6/8@1.00 | – |
| Ac-Sar^1, 4-Cl-D-Phe^2, L-1-Nal^3, D-Pal(iPr)^6, Lys(iPr)^8, D-Ala^10-LHRH.2TFA [Compound 3773] | 7/8@1.0 | – |
| Ac-D-Nal^1, 4-Cl-D-Phe^2, D-Pal^3, N-Me-Ala^5, D-Pal(iPr)^6, Lys(iPr)^8, D-Ala^10-LHRH.2TFA [Compound 3757] | 7/8@1.0 | – |
| Ac-D-Nal^1, 4-Cl-D-Phe^2, D-Pal^3,D-Lys(Mts)^6, Lys(iPr)^8, D-Ala^10-LHRH.TFA [Compound 3761] | 7/8@1.0 | – |
| Ac-D-Nal^1, 4-Cl-D-Phe^2, D-Pal^3, D-Met(S^+Me)^6, Met(S^+Me)^8, D-Ala^10-LHRH.2TFA [Compound 4016] | 6/8@1.00 | – |
| Ac-D-Nal^1, 4-Cl-D-Phe^2, D-Pal^3, Asn^4, Tyr^5, D-Cit^6, Lys(iPr)^8, D-Ala^10-LHRH.TFA [Compound 3434] | 4/8@1 μg | – |
| Ac-D-Nal^1, 4-Cl-D-Phe^2, D-Pal^3, D-Gln(iPr)^6, Lys(iPr)^8, D-Ala^10-LHRH.2TFA [Compound 3545] | 7/8@1 μg | – |
| Ac-D-Qal^1, 4-Cl-D-Phe^2, D-Pal^3, D-Lys(Dodac)^6, Lys(iPr)^8, D-Ala^10-LHRH.TFA [Compound 3742] | 6/8@1.0 | – |
| Ac-D-Nal^1, 4-Cl-D-Phe^2, D-Pal(N—O)^3, D-Pal(iPr)^6, Lys(iPr)^8, D-Ala^10-LHRH.2TFA [Compound 3882] | 6/8@1.0 | – |
| Ac-N^αMe-D-Nal^1, 4-Cl-D-Phe^2, D-Pal^3, D-Cit^6, Lys(iPr)^8, D-Ala^10-LHRH.TFA [Compound 3442] | 7/8@1 μg | – |
| Ac-D-Nal^1, 4-Cl-D-Phe^2, D-Pal^3, His^5, D-Arg^6, Trp^7, Orn^8, D-Ala^10-LHRH.TFA [Compound 3853] | – | AO activity (AOA): rats which ovulate / rats treated (dose 5 μg per rat): 0/8@5.0 |
| Ac-L-(or D)-9-anthryl-Ala^1, 4-Cl-D-Phe^2, D-Pal^3, D-Cit^6-Lys(iPr)^8, D-Ala^10-LHRH.TFA [Compound 3367] | – | AO activity (AOA): rats which ovulate / rats treated (dose 5 μg per rat): 7/8@5 μg |
| Ac-D-Nal^1, 4-Cl-D-Phe^2, D-Pal^3, D-Lys(2-ClNic)^6, Lys(iPr)^8, D-Ala^10-LHRH.TFA [Compound 3441] | 8/8@1 μg | – |
| Ac-D-Nal^1, 4-Cl-D-Phe^2, D-Pal^3, Lys(iPr)^5, D-Lys(4HBc)^6, Lys(iPr)^8, D-Ala^10-LHRH.2TFA [Compound 3745] | 6/8@1.0 | – |

| Substance | AO activity (AOA): rats which ovulate / rats treated (dose 1 μg per rat) | other results |
| --- | --- | --- |
| Ac-D-Qal^1, 4-Cl-D-Phe^2, D-Pal^3, D-Lys(Onic)^6, Lys(iPr)^8, D-Ala^10-LHRH.TFA [Compound 3801] | 8/8@1.0 | – |
| Ac-D-Qal^1, 4-Cl-D-Phe^2, D-Pal^3, D-Lys(Imdac)^6, Lys(iPr)^8, D-Ala^10-LHRH.TFA [Compound 3800] | 7/8@1.0 | – |
| Ac-D-Nal^1, 4-Cl-D-Phe^2, D-Pal^3, D-Met(S^+CH2COPh)^6, D-Ala^10-LHRH.2TFA [Compound 3968] | 4/8@1.00 | – |
| Ac-D-Nal^1, 4-Cl-D-Phe^2, D-Pal^3, D-Pal(CH2COOH)^6, Lys(iPr)^8, D-Ala^10-LHRH.TFA [Compound 3770] | 6/8@1.0 | – |
| Ac-D-Nal^1, 4-Cl-D-Phe^2, D-Pal^3, Pal^5, D-Cit^6, Lys(iPr)^8, D-Ala^10-LHRH.TFA [Compound 3432] | 7/8@1 μg | – |
| Ac-D-Nal^1, 4-Cl-D-Phe^2, D-Pal^3, D-Glu(Mop)^6, Lys(iPr)^8, D-Ala^10-LHRH.2TFA [Compound 3549] | 6/8@1 μg | – |
| Ac-D-Nal^1, 4-Cl-D-Phe^2, D-Pal^3, Lys(Pyz)^5, D-Lys(Pyz)^6, Lys(iPr)^8, D-Ala^10-LHRH.TFA [Compound 3504] | 4/8@1 μg | – |
| Ac-D-Nal^1, 4-Cl-D-Phe^2, D-Pal^3, Arg^5, D-His^6, Trp^7, Orn^8, D-Ala^10-LHRH.TFA [Compound 3854] | – | AO activity (AOA): rats which ovulate / rats treated (dose 5 μg per rat): 6/8@5.0 |
| Met(S^+Me)^8-LHRH.TFA [Compound 3941] | – | AO activity (AOA): rats which ovulate / rats treated (dose 50 μg per rat): 8/8@50.0 |
| Ac-D-Nal^1, 4-Cl-D-Phe^2, D-Pal^3, D-Glu(Dea)^6, Lys(iPr)^8, D-Ala^10-LHRH.TFA [Compound 3543] | 6/8@1 μg | – |
| Ac-Sar^1, 4-Cl-D-Phe^2, D-1-Nal^3, D-Pal(iPr)^6, Lys(iPr)^8, D-Ala^10-LHRH.2TFA [Compound 3772] | 8/8@1.0 | – |
| Ac-D-Qal^1, 4-Cl-D-Phe^2, D-Pal^3, D-Lys(pGlu)^6, Lys(iPr)^8, D-Ala^10-LHRH.TFA [Compound 3723] | 7/8@1.0 | – |
| Ac-D-Nal^1, 4-Cl-D-Phe^2, D-Pal^3, D-Lys(3-pyridineacetic)^6, Lys(iPr)^8, D-Ala^10-LHRH.TFA [Compound 3440] | 2/8@1 μg | – |
| Ac-D-Nal^1, 4-Cl-D-Phe^2, D-Pal^3, Cit^5, D-Cit^6, Lys(iPr)^8, D-Ala^10-LHRH.TFA [Compound 3431] | 6/8@1 μg | – |
| Ac-D-Nal^1, 4-Cl-D-Phe^2, D-Pal^3, D-Lys(Orotic)^6, Lys(iPr)^8, D-Ala^10-LHRH.TFA [Compound 3762] | 6/8@1.0 | – |
| Ac-D-Nal^1, 4-Cl-D-Phe^2, D-Pal^3, D-Lys(Glycolyl)^6, Lys(iPr)^8, D-Ala^10-LHRH.TFA [Compound 3437] | 7/8@1 μg | – |
| Ac-D-Nal^1, C^αMe-4Cl-Phe^2, D-Pal^3, N^αMe-Tyr^5, D-Pal(iPr)^6, Lys(iPr)^8, D-Ala^10-LHRH.TFA [Compound 3541] | 1/8@1 μg | – |
| Ac-D-Nal^1, 4-Cl-D-Phe^2, D-Pal^3, D-Lys(Ala)^6, Lys(iPr)^8, D-Ala^10-LHRH.TFA [Compound 3771] | 7/8@1.0 | – |
| Ac-D-Nal^1, 4-Cl-D-Phe^2, D-Pal^3, D-HomoArg(NO2)^6, Lys(iPr)^8, D-Ala^10-LHRH.TFA [Compound 3436] | 7/8@1 μg | – |
| Ac-D-Nal^1, 4-Cl-D-Phe^2, D-Pal^3, D-Orn(COCH2S^+Me2)^6, D-Ala^10-LHRH.2TFA [Compound 4013] | 0/8@1.00 | – |
| Ac-D-Nal^1, 4-Cl-D-Phe^2, D-Pal^3, D-Lys(iPrNic)^5, D-Lys(iPrNic)^6, Lys(iPr)^8, D-Ala^10-LHRH.TFA [Compound 3553] | 8/8@1 μg | – |
| Ac-Sar^1, 4-Cl-D-Phe^2, 1-1-Nal^3, D-Pal(Bzl)^6, Lys(iPr)^8,D-Ala^10-LHRH.2TFA [Compound 3769] | 6/8@1.0 | – |
| Ac-D-Nal^1, 4-Cl-D-Phe^2, D-Trp^3, D-Arg^6, Met^8, D-Ala^10-LHRH.TFA [Compound 3880] | 8/8@1.0 | – |
| Ac-D-Nal^1, 4-Cl-D-Phe^2, D-Pal^3, D-Glu^6, Lys(iPr)^8, D-Ala^10-LHRH.TFA [Compound 3552] | 8/8@1 μg | – |

From US7071165B2, “LHRH antagonist peptides” (Indiana University Research and Technology Corporation, priority 1995, dated 2006)
